Tests used:
[1] = test system: detached leaf segments of Triticum aestivum cv. Hereward; assay: Senescence bioassay on wheat leaf segments in dark conditions; details: dark, 96 h, 25° C., chlorophyll absorbance 665 nm, read-out: Senescence bioassay (IC50)
Description: (§1) Seeds of winter wheat, Triticum aestivum cv. Hereward, were washed under running water for 24 hours and then sown on perlite soaked with Hogland's solution. They were placed in the growth chamber at 25° C. with a 16/8 h light period at 50 μmol·m^−2·s^−1. After 7 days, the first leaf was fully developed and the second leaf had started to grow. A tip section of the first leaf, approximately 4 cm long, was removed from 4 seedlings and trimmed slightly to a combined weight of 100 mg. The basal ends of the four leaf tips were placed into the 96-wells plate containing 150 μL of the tested derivative solution each. The entire plate was inserted into a plastic box lined with paper tissues soaked in distilled water to prevent leaf sections from drying out. After 96 h incubation in the dark at 25° C., the leaves were removed and chlorophyll extracted by heating at 80° C. for 10 min in 5 mL of 80% ethanol (v/v). The sample volume was then restored to 5 mL by the addition of 80% ethanol (v/v). The absorbance of the extract was recorded at 665 nm. In addition, chlorophyll extracts from fresh leaves and leaf tips incubated in deionised water were measured. The results are means of five replicates and the entire test was repeated at least twice. […] The compounds to be tested were dissolved in dimethylsulfoxide (DMSO) and the solution brought up to 10^−3 M with distilled water. […] The IC50 values were determined for standard (BAP) and novel tested compounds.

[2] = Toxicity towards human skin fibroblasts (Calcein AM assay); format: cell-based
Description: Cytotoxicity of the compounds to human skin fibroblasts (BJ cell line) was determined in a standard Calceinovém AM test. Cells were maintained in plastic tissue culture flasks and grown in Dulbecco's modified Eagle's medium for cell culture (DMEM) at 37° C. in 5% CO2 and 100% humidity. Cells were placed into 96-well microtiter plates (Nunc, Denmark) and after 12 hours pre-incubation, the tested compound was added to a final concentration ranging from […]. Cells were incubated for 72 hours. At the end of incubation period Calcein AM was added in PBS to a final concentration of […]. After 1 hour of incubation fluorescence was measured at 485/538 nm (ex/em wavelength) using Fluoroskan Ascent (Labsystems, Finland). IC50 values (the concentration causing reduction of calcein AM conversion to 50%) were calculated from the curves obtained. All experiments were repeated four times with a maximum deviation of 15%. Due to the limited solubility of substances in water, all the tested compounds were dissolved in DMSO and diluted with water to a final concentration.

[3] = test system: detached leaf segments of Triticum aestivum cv. Hereward; assay: Senescence bioassay on wheat leaf segments in dark/light conditions; details: foliar, 168 h, read-out: Senescence bioassay (IC50)
Description: as §1
The ability of the novel compounds to retard chlorophyll degradation in detached wheat leaves was tested also in the light conditions. The experiment was performed as described in Example 7 with modifications as follows—the incubation of the leaves with the compounds was done in the dark/light conditions 8/16 (light—100 μmol·m^−2·s^−1) at 22° C. for 7 days. […] The newly prepared substituted 1,2,3-thiadiazol-5-yl urea derivatives of the invention are much stronger anti-senescent compounds in comparison to the BAP in retarding senescence under optimal (dark/light) conditions.

[4] = test system: wheat leaves; assay: Ethylene production (defoliating activity) assay; set-up: species or system Triticum aestivum; details: 10 μM; for Ethylene produced: 96 h in the dark at 25° C., control 270 (±15)
Description: We investigated the effect of the compounds of the invention on ethylene production in wheat leaves. The leaves were obtained as described in Example 8, placed in 5 mL glass vials and immersed at 10 μM solutions of tested compounds of the invention or TDZ. Distilled water was used as a control treatment. After 96 h incubation in the dark at 25° C., 1 mL of air was taken from the vials and content of ethylene in it was determined using gas chromatography with the flame ionization detector (GC-FID) method described by Fišerová et al. (Fišerová H, Kula E, Klemš M, Reinöhl V (2001) Phytohormones as indicators of the degree of damage in birch (Betula pendula). Biológia 56: 405-409).

[5] = test system: Arabidopsis thaliana (wild-type Col-0); assay: Root growth and lateral root formation of Arabidopsis; format: in vivo; details: 10 nM; for Lateral root number / Primary root lenght: two weeks after transfer
Description: To investigate in vivo effect of the new derivatives on the root growth and development, seeds of Arabidopsis thaliana (wild-type Col-0) were surface sterilized and sown on vertical plates on half-strength Murashige-Skoog medium (supplied with 0.1% sucrose and 6 g/L phytagel) containing 10 nM BAP or 10 nM 1,2,3-thiadiazol-5-yl-urea derivative, or 0.01% DMSO (solvent control). After vernalization (4 days in the dark, 4° C.) plates were transferred into the growth chamber (22° C., 16/8 light/dark). Two weeks after transfer, seedlings were photographed and root elongation and lateral root formation was scored using Scion image software (Scion Corp., Frederick, Md., USA). At least 40 plants were measured for each treatment.

[6] = test system: detached leaves of Triticum aestivum cv. Hereward; assay: Membrane lipid peroxidation (MDA, TBA method) in detached wheat leaves in the dark; details: for MDA: four days in the dark
Description: A typical symptom associated with senescence as a direct consequence of increased reactive oxygen species is membrane lipid peroxidation which produces malondialdehyde (MDA). Therefore the levels of MDA, a decomposition product of lipid peroxidation, were measured in detached wheat leaves that were exposed to the prepared novel derivatives or BAP for four days in the dark as described in Example 7. MDA levels were measured using a thiobarbituric acid (TBA) method. In detail, 100 mg of fresh plant material was homogenized by high speed shaking in a ball mill (MM301, Retsch, Germany) with 1 mL of 70% methanol. The crude extract was centrifuged at 10,000×g for 5 min, and 100 μL aliquot of supernatant was vortexed with 100 μL of 0.5% (w/v) TBA containing 0.1% (w/v) trichloroacetic acid, and the resulting solution was then incubated for 30 min at 95° C. The samples were quickly cooled on ice and centrifuged for 5 min at 1000 g. The absorbance of supernatant was measured at 532 nm with background subtraction at 600 nm and the amount of MDA-TBA complex was calculated from the coefficient of absorbance 155 mM^−1 cm^−1.

[7] = dark/light 8/16, 22° C., 7 days

Compound	IC50 ([1]; Triticum aestivum, foliar) [µM]	CC50 at 72 h [2] [µM]	IC50 [3, 7] [µM]	Ethylene produced [4]	Lateral root number [5]	Primary root lenght [5]	MDA [6]	also measured
CSCCNC(=O)Nc1cnns1 [Compound 39, 1-(2-methylthio-ethyl)-3-[1,2,3]thiadiazol-5-yl-urea]	3.1							
O=C(NCC1CCCO1)Nc1cnns1 (stereo not shown) [Compound 75, 1-(tetrahydro-furan-2-yl-methyl)-3-[1,2,3]thiadiazol-5-yl-urea]	11.2	> 100	0.42	282 (±19) nL/g FW	17 (±6)	44 (±16) mm	15.2 (±0.7) nmol/g FW	
CSCCCCCNC(=O)Nc1cnns1 [Compound 42, 1-(5-methylthio-pentyl)-3-[1,2,3]thiadiazol-5-yl-urea]	10.5							
C#CCNC(=O)Nc1cnns1 [Compound 55, 1-prop-2-ynyl-3-[1,2,3]thiadiazol-5-yl-urea]	22	> 100			15 (±8)	40 (±10) mm	14.1 (±1.1) nmol/g FW	
O=C(Nc1ccccc1)Nc1cnns1 [TDZ, thidiazuron, reference compound]				628 (±45) nL/g FW	2.1 (±2)	10 (±4) mm		IC50 [3]: 1.1 µM; elevation of ethylene production compared to untreated control ([4]; 96 h): 133%; times higher production of ethylene than the novel tested compounds ([4]; 96 h): at least 5 times
1-(thiophen-2-yl-methyl)-3-[1,2,3]thiadiazol-5-yl-urea [Compound 76]								IC50 [1]: 32 µM
O=C(NCCCS)Nc1cnns1 [Compound 35, 1-(3-thio-propyl)-3-[1,2,3]thiadiazol-5-yl-urea]								IC50 [1]: 12 µM
COCCCCCNC(=O)Nc1cnns1 [Compound 9, 1-(5-methoxy-pentyl)-3-[1,2,3]thiadiazol-5-yl-urea]	31							
COCCCNC(=O)Nc1cnns1 [Compound 7, 1-(3-methoxy-propyl)-3-[1,2,3]thiadiazol-5-yl-urea]	11.4	> 100	0.4	312 (±18) nL/g FW	14 (±10)	40 (±10) mm	14.4 (±0.8) nmol/g FW	
COCC(C)NC(=O)Nc1cnns1 (stereo not shown) [Compound 28, 1-(2-methoxy-1-methyl-ethyl)-3-[1,2,3]thiadiazol-5-yl-urea]	8.6	> 100	0.43	246 (±12) nL/g FW	16 (±7)	41 (±13) mm	13.9 (±0.9) nmol/g FW	effect on ethylene evolution compared to control (in words) ([4]; 96 h): inhibition of ethylene evolution
c1ccc(CNc2ncnc3nc[nH]c23)cc1 [6-benzylaminopurine (BAP), 6-benzylaminopurine, reference compound]	155		123		3.6 (±2)	15 (±5) mm	19.1 (±1.7) nmol/g FW	root development (in words) [5]: severely and significantly retarded; effect on peroxidation of membrane lipids (in words) ([6]; compared to untreated control): does not decrease the peroxidation of membrane lipids significantly
O=C(NCCCCCCBr)Nc1cnns1 [Compound 74, 1-(6-bromo-hexyl)-3-[1,2,3]thiadiazol-5-yl-urea]								level of membrane lipid peroxidation during dark senescence reduced to ([6]; compared to untreated control): 50.2%
COC(CNC(=O)Nc1cnns1)OC [Compound 16, 1-(2,2-dimethoxy-ethyl)-3-[1,2,3]thiadiazol-5-yl-urea]	2.9	> 100	0.16	267 (±23) nL/g FW	19 (±9)	45 (±9) mm	11.6 (±1.2) nmol/g FW	
C=CCNC(=O)Nc1cnns1 [Compound 50, 1-Allyl-3-[1,2,3]thiadiazol-5-yl-urea]	7.1	> 100	0.25	279 (±18) nL/g FW	14 (±10)	42 (±12) mm	17.4 (±1.3) nmol/g FW	
1-(3,4-dihydro-2H-pyran-2-yl-methyl)-3-[1,2,3]thiadiazol-5-yl-urea [Compound 82]								IC50 [1]: 25 µM
1-(thiophen-2-yl-methyl)-3-[1,2,3]thiadiazol-5-yl-urea [Compound 78]								IC50 [1]: 45 µM
CC(C)=CCNC(=O)Nc1cnns1 [Compound 21, 1-(3-methyl-but-2-enyl)-3-[1,2,3]thiadiazol-5-yl-urea]	97							
COCCCCNC(=O)Nc1cnns1 [Compound 8, 1-(4-methoxy-butyl)-3-[1,2,3]thiadiazol-5-yl-urea]	25.5							
C/C(=C\CNC(=O)Nc1cnns1)CO [Compound 20, 1-((E)-4-hydroxy-3-methyl-but-2-enyl)-3-[1,2,3]thiadiazol-5-yl-urea]	12.6	> 100	0.61	254 (±22) nL/g FW	11 (±6)	32 (±9) mm	15.8 (±0.7) nmol/g FW	effect on ethylene evolution compared to control (in words) ([4]; 96 h): inhibition of ethylene evolution
CC(O)CNC(=O)Nc1cnns1 (stereo not shown) [Compound 25, 1-(2-Hydroxy-propyl)-3-[1,2,3]thiadiazol-5-yl-urea]	3.5	> 100	0.1	281 (±31) nL/g FW	12 (±8)	35 (±0.8) mm	12.6 (±0.83) nmol/g FW	
COCCCCCCNC(=O)Nc1cnns1 [Compound 10, 1-(6-methoxy-hexyl)-3-[1,2,3]thiadiazol-5-yl-urea]	45							
O=C(NCCO)Nc1cnns1 [Compound 1, 1-(2-hydroxy-ethyl)-3-[1,2,3]thiadiazol-5-yl-urea]	26							
O=C(NCCS)Nc1cnns1 [Compound 34, 1-(2-thio-ethyl)-3-[1,2,3]thiadiazol-5-yl-urea]								IC50 [1]: 18 µM
